In assay [1] the test system is promyelocytic HL-60 leukemia. As to the kind of experiment: In vitro cytotoxicity, Calcein AM assay, HL60. The class given is cell-based, human. To be noted: Homo sapiens, HL-60, 72 hours. An excerpt:
Low cytotoxicity of the compounds is the major property determining the cosmetic use. One of the parameters used, as the basis for cytotoxicity assays, is the metabolic activity of viable cells. For example, a microtiter assay, which uses the Calcein AM, is now widely used to quantitate cell proliferation and cytotoxicity. For instance, this assay is used in drug screening programs and in chemosensitivity testing. Because only metabolically active cells cleave Calcein AM, these assays detect viable cells exclusively. The quantity of […] Calcein AM corresponds to the number of vital cells in the culture.
Human T-lymphoblastic leukemia cell line CEM; promyelocytic HL-60 and monocytic U937 leukemias; breast carcinoma cell lines MCF-7, BT549, MDA-MB-231; glioblastoma U87MG cells; cervical carcinoma cells HELA; sarcoma cells U2OS and Saos2; hepatocellular carcinoma HepG2; mouse fibroblasts NIH3T3; mouse immortalized bone marrow macrophages B2.4 and B10A.4; P388D1 and L1210 leukemia; B16 and B16F10 melanomas; human osteosarcoma HOS; human myeloid leukemia K-562; human skin melanoma G-361 were used for routine screening of compounds. The cells were maintained in Nunc/Corning 80 cm^2 plastic tissue culture flasks and cultured in cell culture medium (DMEM with 5 g/l glucose, 2 mM glutamine, 100 U/mL penicillin, 100 μg/mL streptomycin, 10% fetal calf serum and sodium bicarbonate).
The cell suspensions that were prepared and diluted according to the particular cell type and the expected target cell density (2.500-30.000 cells per well based on cell growth characteristics) were added by pipette ([…]) into 96/well microtiter plates. Inoculates were allowed a pre-incubation period of 24 hours at 37° C. and 5% CO2 for stabilisation. Four-fold dilutions of the intended test concentration were added at time zero in 20 μl aliquots to the microtiter plate wells. Usually, the compound tested was evaluated at six 4-fold dilutions. In routine testing, the highest well concentration was 100 μM, but it can be the matter of change dependent on the agent. All drug concentrations were examined in duplicates. Incubations of cells with the tested compounds lasted for 72 hours at 37° C., in 5% CO2 atmosphere and 100% humidity. At the end of the incubation period, the cells were assayed by using Calcein AM. Ten microliters of the stock solution were pipetted into each well and incubated for 1 hour. Fluorescence (FD) was measured with the Labsystem FIA Reader Fluoroscan Ascent (UK). The tumour cell survival (GI50) was calculated using the following equitation: TCS=(FDdrug exposed well/mean FDeontrol wells)×100%. The GI50 value, the drug concentration lethal to 50% of the tumour cells, was calculated from the obtained dose response curves.
Zero cytotoxicity of the novel compounds is the basic prerequisite for agricultural and tumor-unrelated applications. The cytoxicity of the novel compounds was tested on a panel of cell lines of different histogenetic and species origin (Table 9). We show herein that equal activities were found in all tumour cell lines tested, however, the non-malignant cells, e.g. NIH3T3 fibroblasts and normal human lymphocytes, were resistant to 2,6-disubstituted purine ribosides induced cytotoxicity. The compounds listed in Tab. 9 can be divided into 2 groups. The first group contains “classical cytokinins” represented by 6-substituted purine ribosides (which are known in the prior art). The second group contains the novel 2,6-disubstituted derivatives of these compounds. […] GI50 for NIH3T3 fibroblasts and normal human lymphocytes was always higher than 100 μM. The novel derivatives show no toxicity to normal and tumour cells in concentrations about 100 μM and thus are more suitable for agricultural applications than “classical cytokinins” (6-substituted purine riboside derivatives).

In assay [2] the test system is human umbilical vein endothelial cells (HUVEC). As to the kind of experiment: Neutrophil mediated damage to endothelial cells (HUVEC viability, trypan blue). The class given is cell-based. Also on record: death of HUVEC treated with TNF-primed neutrophils: dose or concentration left out as unconfirmed. Here is the method: HUVEC were cultured to confluence in tissue culture plates and incubated overnight with neutrophils treated with 20 ng/ml TNFα (+TNF),
[…] Viable cells remain attached to the plastic wells and are visualised by phase contrast light microscopy. The image shown is representative of 3 separate experiments.
ANCA are predominantly IgG autoantibodies directed against constituents of primary granules of neutrophils (PR3 and MPO). ANCA associated vasculitis is the most common primary systemic small-vessel vasculitis in adults. The common pathology of this disease is focal necrotizing lesions of blood vessels and may affect different vessels and organs. […] Neutrophils were cultured for 10 hours in RPMI1640 medium containing 2% human AB serum, 2 mM L-glutamine and antibiotics (100 U/ml penicillin, […] streptomycin) and their apoptosis determined by staining with Giemsa stain and observing an apoptotic morphology by light microscopy. […] The ability of compound 10 to inhibit ANCA-induced neutrophil inflammatory functions was also determined Neutrophils were cultured in RPMI1640 medium containing 2% human AB serum, 2 mM L-glutamine and antibiotics (100 U/ml penicillin, […] streptomycin). […] ANCA stimulated degranulation of neutrophils was assessed by release of myeloperoxidase in to the medium over a 30 minute period, with MPO measured by ELISA. […]

What is called GI50 is the concentration at which growth is held to half of that of the control.

With `COc1cccc(CNc2nc(Cl)nc3c2ncn3C2OC(CO)C(O)C2O)c1O` (stereo not drawn) [Compound 10, 2-Chloro-6-(2-hydroxy-3-methoxybenzylamino)purine riboside], the GI50 in assay [1] was above 100 µM. For the same molecule, the “HUVEC cell death in the presence of ANCA” value in assay [2] (ANCA-activated TNF primed-neutrophils, 24 h (90% without compound)) worked out at 50%. Besides, the “death of HUVEC treated with TNF-primed neutrophils” value in assay [2] (overnight / 24 h, without ANCA) was “completely block the death of HUVEC”.

Source of the values: patent US20140066394A1, “Substituted 6-(Benzylamino) Purine Riboside Derivatives, Use Thereof and Compositions Containing These Derivatives” (Biopatterns, S.R.O, priority 2009, published 2014).
